The record followed here is patent US20180325151A1, “METHOD OF PRODUCING INSTANT GINSENG CHICKEN SOUP PRODUCT” (HARIM CORPORATION, priority 2017, published 2018).

Test [1] has as its system total number of bacteria. Nature of the test: Microorganism growth inhibition: total number of bacteria on plate count agar. It counts as cell-based. Conditions: boiled soup chicken dipped 30 seconds in solution, stored at 25° C. As for the experimental part: (§1) A chicken in instant ginseng chicken soup (product of Harim) was boiled, washed twice with cold water, and then dehydrated for 1 minute. 10 g of boiled instant ginseng chicken soup was dipped in 100 ml of solution for 30 seconds, dehydrated for 30 seconds on a strainer, held in a petri dish, and then stored at 25° C. For counting the total number of bacteria, the number of colonies resulting from culturing for 48 hours at 37° C. using a plate count agar was counted and indicated with colony forming unit (CFU)/ml. For counting the number of colon bacteria, the experiment was conducted in the same way for counting the total number of bacteria using a Chromocult (merck) medium. In this case, distilled water as a control group and (F)rhodinic acid were used.

Test [2] deals with colon bacteria. The test can be described thus: Microorganism growth inhibition: number of colon bacteria on Chromocult medium. It counts as cell-based. As to conditions: time 24 (hours); stored at 25° C.; ND = Not observed. On the procedure:
as §1

As for `CC(C)=CCCC(C)CC(=O)O` (centres unmarked) [F (rhodinic acid), rhodinic acid], the “Total number of bacteria” value in test [1] (time 0) is given as 6.7 × 10^2 CFU/ml; in test [1] (time 18), 10 × 10^5 CFU/ml; in test [1] (time 24 (hours)), 8.9 × 10^6 CFU/ml; in test [1] (time 24 (hours), listed as (F)rhodinic acid), “up to 10^6 CFU/ml”. The “Number of colon bacteria” value in test [2] is on record as “no colon bacteria were detected”.
